From patent US11572590B2, “Methods for evaluating tumor cell spheroids using 3D microfluidic cell culture device” (Dana-Farber Cancer Institute, Inc., priority 2017, dated 2023)
Read-outs that look alike come from different tables or passages of the source.

How the values were obtained:
Assay in all cases: SelectScreen Kinase Profiling, single point inhibition and IC50 for off-target kinases
Type in all cases: biochemical
off-target kinases [1] = target: T1, off-target kinases (Homo sapiens, UniProt Q8NE63); conditions: HIPK4, ZLYTE, ATP Km app
T1 sequence (Q8NE63 1-616): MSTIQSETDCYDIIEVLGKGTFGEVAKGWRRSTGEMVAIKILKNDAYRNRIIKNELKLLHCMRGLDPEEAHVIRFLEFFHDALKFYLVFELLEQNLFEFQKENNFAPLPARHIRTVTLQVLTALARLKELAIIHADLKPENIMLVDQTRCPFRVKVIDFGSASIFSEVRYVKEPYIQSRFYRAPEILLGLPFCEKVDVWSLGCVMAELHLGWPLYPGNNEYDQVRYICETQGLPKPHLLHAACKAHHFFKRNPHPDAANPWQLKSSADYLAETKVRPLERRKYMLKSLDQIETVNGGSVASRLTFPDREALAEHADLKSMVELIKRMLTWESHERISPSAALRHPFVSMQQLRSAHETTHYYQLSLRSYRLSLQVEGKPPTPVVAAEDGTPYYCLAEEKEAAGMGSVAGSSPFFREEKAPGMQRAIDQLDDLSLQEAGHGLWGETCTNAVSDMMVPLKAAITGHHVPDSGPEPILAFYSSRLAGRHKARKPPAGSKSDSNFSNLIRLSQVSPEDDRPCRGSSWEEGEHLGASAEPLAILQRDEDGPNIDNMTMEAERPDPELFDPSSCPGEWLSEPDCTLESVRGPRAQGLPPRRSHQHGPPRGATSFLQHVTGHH

off-target kinases [2] = target: off-target kinases (Homo sapiens, UniProt P37173); conditions: TGFBR2, LanthaScreen Binding
Chain of off-target kinases (Homo sapiens, UniProt P37173) (P37173 23-567): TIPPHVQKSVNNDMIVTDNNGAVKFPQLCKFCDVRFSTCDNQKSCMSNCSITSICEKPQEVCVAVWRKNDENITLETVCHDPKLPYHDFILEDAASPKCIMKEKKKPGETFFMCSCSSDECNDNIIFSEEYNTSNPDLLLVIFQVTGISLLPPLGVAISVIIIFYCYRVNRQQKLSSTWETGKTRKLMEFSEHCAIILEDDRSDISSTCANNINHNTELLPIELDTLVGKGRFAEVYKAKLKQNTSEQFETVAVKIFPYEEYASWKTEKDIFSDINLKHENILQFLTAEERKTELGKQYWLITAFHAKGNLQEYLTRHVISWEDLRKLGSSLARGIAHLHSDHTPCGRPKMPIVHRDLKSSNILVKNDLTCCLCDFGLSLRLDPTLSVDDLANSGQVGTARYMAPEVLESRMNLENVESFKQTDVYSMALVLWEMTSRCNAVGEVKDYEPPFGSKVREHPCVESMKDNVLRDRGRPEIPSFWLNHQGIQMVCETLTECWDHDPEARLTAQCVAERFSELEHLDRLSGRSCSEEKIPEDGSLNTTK

off-target kinases [3] = target: off-target kinases (Homo sapiens, UniProt Q96SB4); conditions: SRPK1, ZLYTE, ATP Km app
Chain of off-target kinases (Homo sapiens, UniProt Q96SB4) (Q96SB4 whole entry): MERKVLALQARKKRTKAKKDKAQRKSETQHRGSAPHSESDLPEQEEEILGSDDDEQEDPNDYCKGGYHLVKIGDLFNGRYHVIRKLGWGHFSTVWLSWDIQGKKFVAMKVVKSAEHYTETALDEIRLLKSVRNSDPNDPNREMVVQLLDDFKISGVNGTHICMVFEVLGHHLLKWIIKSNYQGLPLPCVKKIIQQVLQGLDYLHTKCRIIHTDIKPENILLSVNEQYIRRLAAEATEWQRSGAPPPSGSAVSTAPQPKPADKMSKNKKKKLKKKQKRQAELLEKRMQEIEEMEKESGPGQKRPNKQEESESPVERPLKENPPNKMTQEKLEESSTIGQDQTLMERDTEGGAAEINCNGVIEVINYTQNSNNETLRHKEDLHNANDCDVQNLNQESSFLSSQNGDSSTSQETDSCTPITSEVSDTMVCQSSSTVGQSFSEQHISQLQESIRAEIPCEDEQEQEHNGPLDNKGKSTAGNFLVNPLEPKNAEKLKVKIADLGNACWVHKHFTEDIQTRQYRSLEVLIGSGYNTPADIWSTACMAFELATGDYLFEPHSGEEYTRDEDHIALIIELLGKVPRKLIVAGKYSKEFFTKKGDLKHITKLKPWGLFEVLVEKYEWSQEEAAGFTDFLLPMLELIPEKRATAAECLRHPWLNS

off-target kinases [4] = target: T2, off-target kinases (Homo sapiens, UniProt O15111); conditions: CHUK (IKK alpha), ATP Km app, Adapta
T2 sequence (O15111 1-745): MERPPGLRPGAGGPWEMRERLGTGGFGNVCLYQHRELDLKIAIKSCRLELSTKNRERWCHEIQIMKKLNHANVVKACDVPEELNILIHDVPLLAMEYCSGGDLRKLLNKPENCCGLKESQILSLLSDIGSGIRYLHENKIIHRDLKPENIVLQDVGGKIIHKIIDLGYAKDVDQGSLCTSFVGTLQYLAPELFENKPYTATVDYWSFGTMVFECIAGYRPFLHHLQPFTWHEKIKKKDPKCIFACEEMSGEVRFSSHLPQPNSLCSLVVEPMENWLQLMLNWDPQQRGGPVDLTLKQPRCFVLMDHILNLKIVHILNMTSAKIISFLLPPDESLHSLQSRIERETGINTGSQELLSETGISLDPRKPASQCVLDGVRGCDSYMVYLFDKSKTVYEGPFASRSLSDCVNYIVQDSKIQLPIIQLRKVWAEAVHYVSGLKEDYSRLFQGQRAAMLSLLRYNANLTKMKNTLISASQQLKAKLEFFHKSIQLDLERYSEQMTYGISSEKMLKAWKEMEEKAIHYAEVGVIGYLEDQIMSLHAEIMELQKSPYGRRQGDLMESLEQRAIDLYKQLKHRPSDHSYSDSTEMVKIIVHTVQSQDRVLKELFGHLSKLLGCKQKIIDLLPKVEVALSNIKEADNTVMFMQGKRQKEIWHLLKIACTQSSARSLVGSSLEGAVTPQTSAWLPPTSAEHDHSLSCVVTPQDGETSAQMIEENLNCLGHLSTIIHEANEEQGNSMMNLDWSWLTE

off-target kinases [5] = target: off-target kinases (Homo sapiens, UniProt P48736); conditions: PIK3CG (p110 gamma), Adapta, ATP Km app
Chain of off-target kinases (Homo sapiens, UniProt P48736) (P48736 whole entry): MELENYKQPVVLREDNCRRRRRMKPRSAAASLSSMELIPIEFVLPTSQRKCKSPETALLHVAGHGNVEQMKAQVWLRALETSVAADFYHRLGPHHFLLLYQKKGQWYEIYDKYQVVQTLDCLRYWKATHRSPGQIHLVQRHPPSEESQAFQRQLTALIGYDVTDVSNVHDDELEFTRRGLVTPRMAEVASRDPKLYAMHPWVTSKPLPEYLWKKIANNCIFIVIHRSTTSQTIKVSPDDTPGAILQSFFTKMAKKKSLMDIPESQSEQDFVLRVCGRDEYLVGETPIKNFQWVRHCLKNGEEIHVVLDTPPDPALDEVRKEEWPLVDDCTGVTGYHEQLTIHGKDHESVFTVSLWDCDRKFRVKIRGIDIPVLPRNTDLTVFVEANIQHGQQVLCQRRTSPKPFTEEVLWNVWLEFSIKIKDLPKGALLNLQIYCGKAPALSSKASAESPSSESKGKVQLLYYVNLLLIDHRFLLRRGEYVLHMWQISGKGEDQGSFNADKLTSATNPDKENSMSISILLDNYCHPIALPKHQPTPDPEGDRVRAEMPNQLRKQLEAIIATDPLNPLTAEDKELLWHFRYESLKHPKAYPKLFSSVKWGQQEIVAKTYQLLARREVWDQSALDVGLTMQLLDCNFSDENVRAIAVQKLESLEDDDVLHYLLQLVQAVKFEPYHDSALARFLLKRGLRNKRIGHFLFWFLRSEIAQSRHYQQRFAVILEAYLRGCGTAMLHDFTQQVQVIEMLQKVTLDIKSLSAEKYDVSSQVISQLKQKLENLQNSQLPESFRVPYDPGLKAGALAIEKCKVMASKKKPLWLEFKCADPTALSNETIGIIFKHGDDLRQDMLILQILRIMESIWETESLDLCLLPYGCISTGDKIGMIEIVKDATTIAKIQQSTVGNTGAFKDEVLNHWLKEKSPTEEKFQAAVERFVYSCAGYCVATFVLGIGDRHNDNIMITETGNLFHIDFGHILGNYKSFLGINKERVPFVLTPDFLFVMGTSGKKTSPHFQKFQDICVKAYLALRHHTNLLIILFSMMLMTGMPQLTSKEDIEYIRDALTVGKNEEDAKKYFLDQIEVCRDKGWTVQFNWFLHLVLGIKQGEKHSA

off-target kinases [6] = target: off-target kinases (Homo sapiens, UniProt Q13464); conditions: ROCK1, ZLYTE, ATP Km app
Chain of off-target kinases (Homo sapiens, UniProt Q13464) (Q13464 whole entry): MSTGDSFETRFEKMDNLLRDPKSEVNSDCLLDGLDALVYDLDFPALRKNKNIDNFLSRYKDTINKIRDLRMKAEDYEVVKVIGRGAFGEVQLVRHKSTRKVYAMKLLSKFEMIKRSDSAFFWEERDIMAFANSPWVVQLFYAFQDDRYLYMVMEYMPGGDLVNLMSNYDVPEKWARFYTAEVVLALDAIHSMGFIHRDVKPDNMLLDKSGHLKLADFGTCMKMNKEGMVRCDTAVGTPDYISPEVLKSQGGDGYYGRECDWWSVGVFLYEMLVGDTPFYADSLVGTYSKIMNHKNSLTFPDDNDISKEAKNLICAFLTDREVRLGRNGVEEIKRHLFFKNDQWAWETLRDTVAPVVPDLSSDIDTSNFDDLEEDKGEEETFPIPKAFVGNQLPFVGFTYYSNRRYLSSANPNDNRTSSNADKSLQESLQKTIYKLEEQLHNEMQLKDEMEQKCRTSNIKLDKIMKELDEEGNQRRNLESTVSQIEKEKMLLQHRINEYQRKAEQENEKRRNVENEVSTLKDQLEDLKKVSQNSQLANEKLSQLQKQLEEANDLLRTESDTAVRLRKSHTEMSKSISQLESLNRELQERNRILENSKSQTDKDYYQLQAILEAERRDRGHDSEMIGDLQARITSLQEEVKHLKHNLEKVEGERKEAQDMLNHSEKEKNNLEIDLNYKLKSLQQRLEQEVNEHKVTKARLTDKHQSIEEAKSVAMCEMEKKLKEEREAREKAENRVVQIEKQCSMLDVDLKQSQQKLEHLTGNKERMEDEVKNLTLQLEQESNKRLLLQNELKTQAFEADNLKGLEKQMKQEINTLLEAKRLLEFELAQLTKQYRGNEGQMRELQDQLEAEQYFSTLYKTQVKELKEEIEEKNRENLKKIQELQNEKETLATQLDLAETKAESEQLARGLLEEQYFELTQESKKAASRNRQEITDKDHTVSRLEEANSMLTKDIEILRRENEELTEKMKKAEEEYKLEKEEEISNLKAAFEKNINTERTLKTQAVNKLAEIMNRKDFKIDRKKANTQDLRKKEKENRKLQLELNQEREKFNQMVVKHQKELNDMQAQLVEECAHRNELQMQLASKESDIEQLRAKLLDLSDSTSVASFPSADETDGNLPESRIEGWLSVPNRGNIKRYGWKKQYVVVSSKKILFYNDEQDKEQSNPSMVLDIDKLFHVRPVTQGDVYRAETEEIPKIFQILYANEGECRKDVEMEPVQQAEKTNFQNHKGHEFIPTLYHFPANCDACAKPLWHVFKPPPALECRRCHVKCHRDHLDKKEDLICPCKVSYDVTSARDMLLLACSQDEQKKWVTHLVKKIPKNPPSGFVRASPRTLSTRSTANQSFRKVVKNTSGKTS

N#Cc1cc(-c2ncnc(Nc3ccc(N4CCN(C5COC5)CC4)cc3)n2)ccc1OC1CCOCC1 [Compound 1, 5-(4-((4-(4-(oxetan-3-yl)piperazin-1-yl)phenyl)amino)-1,3,5-triazin-2-yl)-2-((tetrahydro-2H-pyran-4-yl)oxy)benzonitrile]
inhibition (off-target kinases [1]; read-out: % Inhibition 1): 18% | inhibition (off-target kinases [1]; read-out: % Inhibition 2): 14% | inhibition (off-target kinases [1]; read-out: % Inhibition Avg): 16% | inhibition (off-target kinases [2]; read-out: % Inhibition 1): 92% | inhibition (off-target kinases [2]; read-out: % Inhibition 2): 95% | inhibition (off-target kinases [2]; read-out: % Inhibition Avg): 93% | inhibition (off-target kinases [3]; read-out: % Inhibition 1): -1% | inhibition (off-target kinases [3]; read-out: % Inhibition 2): -2% | inhibition (off-target kinases [3]; read-out: % Inhibition Avg): -2% | inhibition (off-target kinases [4]; read-out: % Inhibition 1): 65% | inhibition (off-target kinases [4]; read-out: % Inhibition 2): 50% | inhibition (off-target kinases [4]; read-out: % Inhibition Avg): 58% | inhibition (off-target kinases [5]; read-out: % Inhibition 1): 11% | inhibition (off-target kinases [5]; read-out: % Inhibition 2): 8% | inhibition (off-target kinases [5]; read-out: % Inhibition Avg): 9% | inhibition (off-target kinases [6]; read-out: % Inhibition 1): 6% | inhibition (off-target kinases [6]; read-out: % Inhibition 2): 14% | inhibition (off-target kinases [6]; read-out: % Inhibition Avg): 10%
